In US12247018B2, “Aryl-n-aryl derivatives for treating a RNA virus infection” (ABIVAX, priority 2018, dated 2025):
pEC50, pIC50: −log10 of the molar value.

Experiments:
RSV A2 = assay: RSV inhibition (cytopathic effect) in HEp-2 cells using Viral ToxGlo assay; assay type: cell-based; details: human respiratory syncytial virus; RSV A2, HEp-2 cells, MOI 0.5, 72 h p.i.
Procedure: Protocol for Screening Antiviral Compounds for RSV Inhibition and Cytotoxicity Using Viral ToxGlo Assay
HEp-2 cells were maintained in Eagle's minimum essential medium (EMEM) with Earle's BSS adjusted to contain 2 mM L-glutamine, 10% fetal bovine serum, 100 U/ml penicillin and 100 μg/ml streptomycin. For the purposes of the screening assay they were grown to 90% confluency, trypsinized and recovered. The trypsin was neutralised with cell culture media and cells were centrifuged at 150×g for 5 minutes before discarding the supernatant and resuspending cell pellet in assay media (EMEM with Earle's BSS adjusted to contain 2 mM L-glutamine, 2% fetal bovine serum and 100 U/ml penicillin and 100 μg/ml streptomycin). The cells were seeded into white clear-bottomed cell culture plates at a density of 1.5×10^4 cells/well in 50 μl and 4×10^3 cells/well in 25 μl for 96 well plates and 384 well plates respectively. For the media/background control column assay media only was added. Cell plates were placed in a humid chamber and incubated overnight at 37° C./5% CO2. After overnight incubation cells were checked for confluency and healthy appearance.
Test articles were made up at 10× test concentration in a maximum DMSO concentration of 10% (final assay concentration maximal 1% DMSO) and added to the cell plates in volumes of 10 μl for 96 well plates and 5 μl for 384 well plates. For cell control and virus control wells the test article solvent only was added. Virus or assay media for cytotoxicity test wells and media/cell control wells was added immediately after test articles at an MOI of 0.5, 40 or 20 μl for 96 and 384 well plates respectively. Virus suspension was prepared by thawing RSV A2 frozen stocks and diluting to the required concentration of plaque forming units in assay media on ice.
Cell plates were further incubated inside a humid chamber for 72 h p.i at 37° C./5% CO2. After the incubation period cells were observed under the microscope to check for characteristic cytopathic effect in virus control wells and healthy cells in the cell control wells. After plates were adjusted to room temperature 20/40 μl Viral ToxGlo (Promega) was added to each well of the 384/96 well cell plates. Plates were incubated at room temperature, protected from light on a plate rocker for 20 minutes before measuring the luminescence on a spectrophotometer (Biotek Synergy HTX).

[1] = system: CHIKV strain of La Réunion outbreak (LR2006-OPY1) with GFP modification in 5′; assay: microbe, parasite or virus in culture; assay type: cell-based, Chikungunya virus; details: infected HEK293T cells; for inhibition at 1 µM / pIC50: Chikungunya virus, HEK-293T; for inhibition at 1 µM: compounds at 1 μM, MOI 0.1, 22 h, values above 100 lowered to 100, read-out: % CHIKV Inhibition Mean (n = 2); for pIC50: second round of experiments
Procedure: The ability of the compounds to inhibit viral replication was assessed with an experiment in which infected cells were treated by compounds of formula (Ic) at 1 μM. As a positive control for inhibition of Chikungunya, Ribavirin was used. Toxicity of the compounds was assessed in parallel.
Human embryonic kidney cells 293T (HEK293T, CRL-11268) were maintained in Dulbecco's modified Eagle's Medium (DMEM, 31966-021, Thermo Fisher Scientific) supplemented with 10% of fetal bovine serum (FBS), penicillin and streptomycin. After removal of the medium, cells were washed with Ca^2+ and Mg^2+-free salt solution to remove all traces of serum. After aspiration of wash solution, cells were dissociated with 0.25% Trypsin-EDTA solution and incubated 30 s at least in 37° C. incubator. Concentration of cell suspension was determined by an automatic cell counter (EVE, NanoEntek) and, if needed, adjusted to 0.33×10^6 cells/mL with DMEM medium supplemented with 10% FBS.
100 μL of the cell suspension were dispatched in a ViewPlate-96 Black (6005182, PerkinElmer) and in a transparent 96-well cell culture plate (655180, Greiner bio-one). After an incubation for 24 h at 37° C. under 5% of CO2, compounds were added at the proper concentration.
An intermediate dilution was prepared with DMSO (D8418, Sigma) at 2 mM in a 96-well V-bottom microplate from the stock solution:
An intermediate dilution was prepared with DMSO (D8418, Sigma) at 25 mM in a 96-well V-bottom microplate from the stock solution:
Perform serial dilution in 2 μL of DMSO 13 times to reach 0.0015 mM. Proceed as follows in table III:
For both screen and determination of IC50, 1 μL of each solution was added in a 1 mL Masterblock 96 wells (Greiner bio-one, 780261) containing 1 mL of DMEM medium. As a positive control, 5 μL of a 80 mM Ribavirin solution (R9644, Sigma) is added to 1 mL of DMEM. On the other hand, DMSO is used as a negative control.
[…]. Vector Borne Zoonotic Dis. 2006; 6 (4)). This modified virus was used to infect cells at MOI 0.1. […].
Medium was removed after 22 h at 37° C. under 5% of CO2 and cells were washed as described above. 60 μL of RIPA buffer (50 mM Tris-HCl pH8, 100 mM NaCl, 1 mM MgCl2, 1% Triton X-100) was added to cells and incubated for at least 20 min before reading fluorescence signal. Pierce 660 nm Protein Assay Reagent (22660, Thermo scientific) was used to normalize fluorescence signal by protein quantity.
• A first round of experiments has been performed wherein the results are expressed as inhibition percentage, which is calculated as follows, through the following steps: • 1. Fluorescence intensity (FI)/Absorbance 660 nm (A660)=A • This ratio allows considering the infection (GFP virus) to the protein amount. • 2. A′=A−background noise of non-infected plate, • 3. B=Fluorescence intensity (FI)/Absorbance 660 nm (A660) of infected but non treated plates, • 4. C=A′/B, which is then converted as the percentage of infection after treatment, compared to non-treated sample, and subsequently as the infection percentage. For instance, a value of 100 in Table IV here below means that, after treatment, the signal attributed to GFP fluorescence is abolished, which is correlated to the absence of infection. • 5. C′=100-C
This value corresponds to the inhibition's percentage.
The following Table IV encompasses said C′ value for some compounds, as calculated above with a mean of 2 experiments, and corresponding standard deviation.
Some values were originally above 100. In these cases, the value has been lowered to 100. This means that some molecules also have an impact on the viability of the cells. In other words, the A value may be lower than the background noise.
Moreover, for each measure, the test was performed with Ribavirin as control. The value of the inhibition percentage was checked, giving 100%.

SMILES | pEC50 (RSV A2) | inhibition at 1 µM [1] | further results
Cc1cc(C(=O)N=C2NCCCN2)ccc1Nc1cccc(C(=O)NCCC(C)C)c1 [compound 27, 4-((3-(isopentylcarbamoyl)phenyl)amino)-3-methyl-N-(tetrahydropyrimidin-2(1H)-ylidene)benzamide] | 6.44 | 96% | –
Cc1cc(C(=O)N=C2NCCCN2)ccc1Nc1cccc(C(=O)NCCC2CCCC2)c1 [compound 28, 4-((3-((2-cyclopentylethyl)carbamoyl)phenyl)amino)-3-methyl-N-(tetrahydropyrimidin-2(1H)-ylidene)benzamide] | 6.51 | 97% | –
O=C(N=C1NCCCN1)c1ccc(Nc2cccc(C(=O)NCCC3CCCCC3)c2)cc1 [compound 24, N-(2-cyclohexylethyl)-3-((4-((tetrahydropyrimidin-2(1H)-ylidene)carbamoyl)phenyl)amino)benzamide] | – | 100% | pIC50 [1]: 6.40 to 7.00
CC(C)CCNC(=O)c1cccc(Nc2ccc(C(=O)N=C3NCCCN3)cc2)c1 [compound 23, N-isopentyl-3-((4-((tetrahydropyrimidin-2(1H)-ylidene)carbamoyl)phenyl)amino)benzamide] | – | 98% | pIC50 [1]: 6.40 to 7.00
O=C(N=C1NCCCN1)c1ccc(Nc2cccc(C(=O)NCCC3CCCC3)c2)cc1 [compound 22, N-(2-cyclopentylethyl)-3-((4-((tetrahydropyrimidin-2(1H)-ylidene)carbamoyl)phenyl)amino)benzamide] | – | 94% | pIC50 [1]: 6.40 to 7.00
O=C(N=C1NCCCN1)c1ccc(Nc2cccc(C(=O)NCCC3CCC3)c2)cc1 [compound 26, N-(2-cyclobutylethyl)-3-((4-((tetrahydropyrimidin-2(1H)-ylidene)carbamoyl)phenyl)amino)benzamide] | – | 97% | –
O=C(N=C1NCCCN1)c1ccc(Nc2cccc(OCCCCC3CCCCC3)c2)c(C2CC2)c1 [compound 140, 4-{[3-(4-cyclohexylbutoxy)phenyl]amino}-3-cyclopropyl-N-(1,3-diazinan-2-ylidene)benzamide] | 6.43 | – | –
NC(=O)c1ncn([C@@H]2O[C@H](CO)[C@@H](O)[C@H]2O)n1 [Ribavirin, reference compound] | – | – | inhibition percentage (Ribavirin positive control) ([1]; Ribavirin as control in each measure): 100%
CC(C)CCN(C)C(=O)c1cccc(Nc2ccc(C(=O)N=C3NCCCN3)cc2C2CC2)c1 [compound 118, 3-cyclopropyl-N-(1,3-diazinan-2-ylidene)-4-({3-[methyl(3-methylbutyl)carbamoyl]phenyl}amino)benzamide] | 6.90 | – | –
O=C(N=C1NCCCN1)c1ccc(Nc2ccccc2C(=O)NCCC(F)(F)F)c(C2CC2)c1 [compound 159, 3-cyclopropyl-N-(1,3-diazinan-2-ylidene)-4-({2-[(3,3,3-trifluoropropyl)carbamoyl]phenyl}amino)benzamide] | 5.96 | – | –
O=C(N=C1NCCCN1)c1ccc(Nc2cc(C(=O)NCCC3CCCCC3)ccn2)c(C(F)(F)F)c1 [compound 111, N-(2-cyclohexylethyl)-2-({4-[(1,3-diazinan-2-ylidene)carbamoyl]-2-(trifluoromethyl)phenyl}amino)pyridine-4-carboxamide] | 7.07 | – | –
Cc1c(Nc2ccc(C(=O)N=C3NCCCN3)cc2C2CC2)cccc1-c1ncc(Cl)[nH]1 [compound 141, 4-{[3-(5-chloro-1H-imidazol-2-yl)-2-methylphenyl]amino}-3-cyclopropyl-N-(1,3-diazinan-2-ylidene)benzamide] | 6.43 | – | –
CC1COCCN1C(=O)c1cccc(Nc2ccc(C(=O)/N=C3\NCCC(=O)N3)cc2C2CC2)c1Cl (stereo not drawn) [compound 91, 4-{[2-chloro-3-(3-methylmorpholine-4-carbonyl)phenyl]amino}-3-cyclopropyl-N-[(2E)-4-oxo-1,3-diazinan-2-ylidene]benzamide] | 8.70 | – | –
CC1(NC(=O)c2cccc(Nc3ccc(C(=O)N=C4NCCCN4)cc3C3CC3)c2)CC1 [compound 99, 3-cyclopropyl-N-(1,3-diazinan-2-ylidene)-4-({3-[(1-methylcyclopropyl)carbamoyl]phenyl}amino)benzamide] | 7.47 | – | –
CC(C)NC(=O)c1cccc(Nc2ccc(C(=O)/N=C3\NCCC(=O)N3)cc2C2CC2)c1 [compound 120, 3-cyclopropyl-N-[(2E)-4-oxo-1,3-diazinan-2-ylidene]-4-({3-[(propan-2-yl)carbamoyl]phenyl}amino)benzamide] | 6.87 | – | –
O=C1CCN/C(=N\C(=O)c2ccc(Nc3cccc(OCC4COCCO4)c3Cl)c(C3CC3)c2)N1 (stereo not drawn) [compound 93, 4-({2-chloro-3-[(1,4-dioxan-2-yl)methoxy]phenyl}amino)-3-cyclopropyl-N-[(2E)-4-oxo-1,3-diazinan-2-ylidene]benzamide] | 7.89 | – | –
CC(C)C(=O)Nc1cccc(Nc2ccc(C(=O)/N=C3\NCCC(=O)N3)cc2C2CC2)c1C1CC1 [compound 122, 3-cyclopropyl-4-{[2-cyclopropyl-3-(2-methylpropanamido)phenyl]amino}-N-[(2E)-4-oxo-1,3-diazinan-2-ylidene]benzamide] | 6.85 | – | –
O=C(N=C1NCCCN1)c1ccc(Nc2cccc(C(=O)N3CC4CC4C3)c2)c(C2CC2)c1 (stereo not drawn) [compound 136, 4-[(3-{3-azabicyclo[3.1.0]hexane-3-carbonyl}phenyl)amino]-3-cyclopropyl-N-(1,3-diazinan-2-ylidene)benzamide] | 6.53 | – | –
CC(C)CCNC(=O)c1cccc(Nc2ccc(C(=O)N=C3NCCCN3)cc2C2CC2)c1 [compound 113, 3-cyclopropyl-N-(1,3-diazinan-2-ylidene)-4-({3-[(3-methylbutyl)carbamoyl]phenyl}amino)benzamide] | 6.99 | – | –
